Consider 8 compounds from patent publication US10344060B2 (priority 2013, dated 2019).

What is called IC50 is the midpoint of a concentration-inhibition curve.

For this test, the target named is hNav1.4 (Homo sapiens, UniProt P35499). In words: cell-based. The class given is cell-based. The note with it: for Nav1.4/Nav1.7: ratio of PX tonic IC50 values.

Several values for one entry are separate records, joined by “and”; a condition that tells them apart may be missing. Equal values may be shown once.

Sequence of hNav1.4 (P35499 whole entry): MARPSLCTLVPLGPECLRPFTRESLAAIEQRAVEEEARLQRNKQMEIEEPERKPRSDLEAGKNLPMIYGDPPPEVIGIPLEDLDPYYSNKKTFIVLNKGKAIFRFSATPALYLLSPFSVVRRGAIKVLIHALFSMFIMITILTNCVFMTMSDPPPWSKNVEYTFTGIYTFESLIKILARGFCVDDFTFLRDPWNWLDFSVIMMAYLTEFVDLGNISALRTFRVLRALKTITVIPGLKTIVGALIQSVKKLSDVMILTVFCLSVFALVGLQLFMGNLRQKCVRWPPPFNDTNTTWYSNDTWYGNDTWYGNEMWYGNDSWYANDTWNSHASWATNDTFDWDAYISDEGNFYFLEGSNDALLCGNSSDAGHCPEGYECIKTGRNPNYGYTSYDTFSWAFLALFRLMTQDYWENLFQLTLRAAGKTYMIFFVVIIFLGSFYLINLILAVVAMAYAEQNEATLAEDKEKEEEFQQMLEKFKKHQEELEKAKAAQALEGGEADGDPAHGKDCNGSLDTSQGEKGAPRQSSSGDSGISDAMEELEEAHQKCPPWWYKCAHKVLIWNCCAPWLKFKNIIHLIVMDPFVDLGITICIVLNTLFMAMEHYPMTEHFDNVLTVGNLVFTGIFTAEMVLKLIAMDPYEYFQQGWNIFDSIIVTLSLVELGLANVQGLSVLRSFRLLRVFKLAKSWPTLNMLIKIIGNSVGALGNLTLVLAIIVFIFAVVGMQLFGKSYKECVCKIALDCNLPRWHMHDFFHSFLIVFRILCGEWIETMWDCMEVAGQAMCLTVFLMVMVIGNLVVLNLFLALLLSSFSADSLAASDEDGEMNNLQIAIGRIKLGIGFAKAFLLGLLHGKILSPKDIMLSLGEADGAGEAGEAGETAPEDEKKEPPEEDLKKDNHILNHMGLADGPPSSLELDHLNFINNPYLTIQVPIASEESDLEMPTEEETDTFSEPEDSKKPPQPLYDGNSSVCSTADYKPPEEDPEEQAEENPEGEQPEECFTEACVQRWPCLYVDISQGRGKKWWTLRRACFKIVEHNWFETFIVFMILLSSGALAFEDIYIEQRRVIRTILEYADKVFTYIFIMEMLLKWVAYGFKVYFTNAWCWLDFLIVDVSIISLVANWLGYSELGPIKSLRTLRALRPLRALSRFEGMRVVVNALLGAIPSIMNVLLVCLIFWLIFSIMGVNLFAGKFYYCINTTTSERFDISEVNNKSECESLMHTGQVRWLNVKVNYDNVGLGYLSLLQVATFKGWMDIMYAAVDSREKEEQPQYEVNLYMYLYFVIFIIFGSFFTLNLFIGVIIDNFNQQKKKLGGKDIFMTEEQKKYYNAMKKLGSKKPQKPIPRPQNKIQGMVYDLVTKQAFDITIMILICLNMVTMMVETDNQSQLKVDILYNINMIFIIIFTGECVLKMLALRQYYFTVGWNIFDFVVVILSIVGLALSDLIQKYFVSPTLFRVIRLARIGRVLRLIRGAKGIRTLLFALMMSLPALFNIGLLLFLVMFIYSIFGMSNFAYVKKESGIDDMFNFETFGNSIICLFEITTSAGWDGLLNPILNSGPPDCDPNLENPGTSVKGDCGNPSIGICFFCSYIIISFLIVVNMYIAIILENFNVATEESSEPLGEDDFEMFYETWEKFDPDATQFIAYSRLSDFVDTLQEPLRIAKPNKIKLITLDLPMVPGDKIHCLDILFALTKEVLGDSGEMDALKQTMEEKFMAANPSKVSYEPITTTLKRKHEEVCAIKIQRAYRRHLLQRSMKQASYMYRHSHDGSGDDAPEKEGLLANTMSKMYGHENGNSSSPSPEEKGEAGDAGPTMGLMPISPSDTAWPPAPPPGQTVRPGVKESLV

Take `C#CC[C@H](N)C(=O)NCCOCCOCCOCCOCCC(=O)NCCCC[C@@H]1NC(=O)[C@H](CCCNC(=N)N)NC(=O)[C@H](CCCCN)NC(=O)[C@H](CO)NC(=O)[C@H](CC(=O)O)NC(=O)[C@@H]2CSSC[C@@H]3NC(=O)[C@H](CCCNC(=N)N)NC(=O)[C@H](CC(C)C)NC(=O)CNC(=O)[C@H](CCC(=O)O)NC(=O)[C@H](CSSC[C@H](NC(=O)[C@H](Cc4ccc(O)cc4)NC(=O)[C@@H](N)CCC)C(=O)N[C@@H](CCC(N)=O)C(=O)N[C@@H](CCCCN)C(=O)N[C@@H](Cc4c[nH]c5ccccc45)C(=O)N[C@@H](CCCC)C(=O)N[C@@H](Cc4c[nH]c5ccccc45)C(=O)N[C@@H]([C@@H](C)O)C(=O)N2)NC(=O)[C@H](CSSC[C@@H](C(=O)N[C@@H](CCCNC(=N)N)C(=O)N[C@@H](CCCCN)C(=O)N[C@H](C(=O)N[C@H](C(N)=O)[C@@H](C)CC)[C@@H](C)CC)NC(=O)[C@H](Cc2c[nH]c4ccccc24)NC(=O)[C@H](CC(C)C)NC(=O)[C@H](CCCCN)NC3=O)NC1=O` [compound 432]: the Nav1.4/Nav1.7 (Table 12) is given as 12.
As for `CCCC[C@@H]1NC(=O)[C@H](Cc2c[nH]c3ccccc23)NC(=O)[C@H](CCCCN)NC(=O)[C@H](CCC(N)=O)NC(=O)[C@@H](NC(=O)[C@@H](N)Cc2ccc(O)cc2)CSSC[C@@H]2NC(=O)[C@@H]3CSSC[C@@H](C(=O)N[C@@H](CCCNC(=N)N)C(=O)N[C@@H](CCCCN)C(=O)N[C@@H](CCC(=O)O)C(=O)N[C@H](C(N)=O)[C@@H](C)CC)NC(=O)[C@H](Cc4c[nH]c5ccccc45)NC(=O)[C@H](CC(C)C)NC(=O)[C@H](CCCCN)NC(=O)[C@H](CSSC[C@H](NC(=O)[C@H]([C@@H](C)O)NC(=O)[C@H](Cc4c[nH]c5ccccc45)NC1=O)C(=O)N[C@@H](CC(=O)O)C(=O)N[C@@H](CO)C(=O)N[C@@H](CCCCN)C(=O)N[C@@H](CCCNC(=N)N)C(=O)N[C@@H](C)C(=O)N3)NC(=O)[C@H](CCCNC(=N)N)NC(=O)[C@H](CC(C)C)NC(=O)CNC(=O)[C@H](Cc1cn(CCCOCCOCCOCCOCCOCCOCCOCCOCCOCCOCCN)nn1)NC2=O` [compound 406], the Nav1.4/Nav1.7 (Table 13) was found to be 11.
Take `C#CC[C@H](N)C(=O)NCCCC[C@@H]1NC(=O)[C@H](CCCNC(=N)N)NC(=O)[C@H](CCCCN)NC(=O)[C@H](CO)NC(=O)[C@H](CC(=O)O)NC(=O)[C@@H]2CSSC[C@@H]3NC(=O)[C@H](CCCNC(=N)N)NC(=O)[C@H](CC(C)C)NC(=O)CNC(=O)[C@H](CCC(=O)O)NC(=O)[C@H](CSSC[C@H](NC(=O)[C@H](Cc4ccc(O)cc4)NC(=O)[C@@H](N)CCC)C(=O)N[C@@H](CCC(N)=O)C(=O)N[C@@H](CCCCN)C(=O)N[C@@H](Cc4c[nH]c5ccccc45)C(=O)N[C@@H](CC(C)C)C(=O)N[C@@H](Cc4c[nH]c5ccccc45)C(=O)N[C@@H]([C@@H](C)O)C(=O)N2)NC(=O)[C@H](CSSC[C@@H](C(=O)N[C@@H](CCCNC(=N)N)C(=O)N[C@@H](CCCCN)C(=O)N[C@@H](CCC(=O)O)C(=O)N[C@H](C(N)=O)[C@@H](C)CC)NC(=O)[C@H](Cc2c[nH]c4ccccc24)NC(=O)[C@H](CC(C)C)NC(=O)[C@H](CCCCN)NC3=O)NC1=O` [compound 439]: the IC50 (Table 12, PatchXpress, tonic block, read-out: PX hNav1.4 Tonic IC50) was determined as 300 nM.
As to `CCCC[C@@H]1NC(=O)[C@H](Cc2c[nH]c3ccccc23)NC(=O)[C@H](CCCCN)NC(=O)[C@H](CCC(N)=O)NC(=O)[C@@H](NC(=O)[C@H](Cc2ccc(O)cc2)NC(=O)[C@@H](N)Cc2cn(CCOCCOCCOCCOCCOCCOCCOCCOCCOCCOCCN)nn2)CSSC[C@@H]2NC(=O)[C@@H]3CSSC[C@@H](C(=O)N[C@@H](CCCNC(=N)N)C(=O)N[C@@H](CCCCN)C(=O)N[C@@H](CCC(=O)O)C(=O)N[C@H](C(N)=O)[C@@H](C)CC)NC(=O)[C@H](Cc4c[nH]c5ccccc45)NC(=O)[C@H](CC(C)C)NC(=O)[C@H](CCCCN)NC(=O)[C@H](CSSC[C@H](NC(=O)[C@H]([C@@H](C)O)NC(=O)[C@H](Cc4c[nH]c5ccccc45)NC1=O)C(=O)N[C@@H](CC(=O)O)C(=O)N[C@@H](CO)C(=O)N[C@@H](CCCCN)C(=O)N[C@@H](CCCNC(=N)N)C(=O)N[C@@H](C)C(=O)N3)NC(=O)[C@H](CCCNC(=N)N)NC(=O)[C@H](CC(C)C)NC(=O)CNC(=O)[C@H](CCC(=O)O)NC2=O` [compound 883], for the setting “Table 13”, the Nav1.4/Nav1.7 came out at 120.
For `CCCC[C@@H]1NC(=O)[C@H](Cc2c[nH]c3ccccc23)NC(=O)[C@H](CCCCN)NC(=O)[C@H](CCC(N)=O)NC(=O)[C@@H](NC(=O)[C@H](Cc2ccc(O)cc2)NC(=O)[C@@H](N)Cc2cn(CCOCCOCCOCCOCCOCCOCCOCCOCCOCCOCCOCCOCCOCCOCCOCCOCCOCCOCCOCCOCCOCCOCCOCCNC(=O)c3cc(CNC(=O)CSCc4ccccc4)cc(C(=O)NCCOCCOCCOCCOCCOCCOCCOCCOCCOCCOCCOCCOCCOCCOCCOCCOCCOCCOCCOCCOCCOCCOCCOCCn4cc(C[C@H](N)C(=O)N[C@@H](Cc5ccc(O)cc5)C(=O)N[C@H]5CSSC[C@@H]6NC(=O)[C@@H]7CSSC[C@@H](C(=O)N[C@@H](CCCNC(=N)N)C(=O)N[C@@H](CCCCN)C(=O)N[C@H](C(=O)N[C@H](C(N)=O)[C@@H](C)CC)[C@@H](C)CC)NC(=O)[C@H](Cc8c[nH]c9ccccc89)NC(=O)[C@H](CC(C)C)NC(=O)[C@H](CCCCN)NC(=O)[C@H](CSSC[C@H](NC(=O)[C@H]([C@@H](C)O)NC(=O)[C@H](Cc8c[nH]c9ccccc89)NC(=O)[C@H](CCCC)NC(=O)[C@H](Cc8c[nH]c9ccccc89)NC(=O)[C@H](CCCCN)NC(=O)[C@H](CCC(N)=O)NC5=O)C(=O)N[C@@H](CC(=O)O)C(=O)N[C@@H](CO)C(=O)N[C@@H](CCCCN)C(=O)N[C@@H](CCCNC(=N)N)C(=O)N[C@@H](C)C(=O)N7)NC(=O)[C@H](CCCNC(=N)N)NC(=O)[C@H](CC(C)C)NC(=O)CNC(=O)[C@H](CCC(=O)O)NC6=O)nn4)c3)nn2)CSSC[C@@H]2NC(=O)[C@@H]3CSSC[C@@H](C(=O)N[C@@H](CCCNC(=N)N)C(=O)N[C@@H](CCCCN)C(=O)N[C@H](C(=O)N[C@H](C(N)=O)[C@@H](C)CC)[C@@H](C)CC)NC(=O)[C@H](Cc4c[nH]c5ccccc45)NC(=O)[C@H](CC(C)C)NC(=O)[C@H](CCCCN)NC(=O)[C@H](CSSC[C@H](NC(=O)[C@H]([C@@H](C)O)NC(=O)[C@H](Cc4c[nH]c5ccccc45)NC1=O)C(=O)N[C@@H](CC(=O)O)C(=O)N[C@@H](CO)C(=O)N[C@@H](CCCCN)C(=O)N[C@@H](CCCNC(=N)N)C(=O)N[C@@H](C)C(=O)N3)NC(=O)[C@H](CCCNC(=N)N)NC(=O)[C@H](CC(C)C)NC(=O)CNC(=O)[C@H](CCC(=O)O)NC2=O` [Homodimeric Conjugate No. 2, Bis-{Atz(PEG23*)-[Nle6]JzTx-V(1-29)}-5-((2-(benzylthio)acetamido)methyl)isophthalamide], under “Table 13”, the Nav1.4/Nav1.7 was 5 and 3.
Regarding `C#CC[C@H](N)C(=O)NCCCC[C@@H]1NC(=O)[C@H](CCCNC(=N)N)NC(=O)[C@H](CCCCN)NC(=O)[C@H](CO)NC(=O)[C@H](CC(=O)O)NC(=O)[C@@H]2CSSC[C@@H]3NC(=O)[C@H](CCCNC(=N)N)NC(=O)[C@H](CC(C)C)NC(=O)CNC(=O)[C@H](CCC(=O)O)NC(=O)[C@H](CSSC[C@H](NC(=O)[C@H](Cc4ccc(O)cc4)NC(=O)[C@@H](N)CCC)C(=O)N[C@@H](CCC(N)=O)C(=O)N[C@@H](CCCCN)C(=O)N[C@@H](Cc4c[nH]c5ccccc45)C(=O)N[C@@H](CC(C)C)C(=O)N[C@@H](Cc4c[nH]c5ccccc45)C(=O)N[C@@H]([C@@H](C)O)C(=O)N2)NC(=O)[C@H](CSSC[C@@H](C(=O)N[C@@H](CCCNC(=N)N)C(=O)N[C@@H](CCCCN)C(=O)N[C@H](C(=O)N[C@H](C(N)=O)[C@@H](C)CC)[C@@H](C)CC)NC(=O)[C@H](Cc2c[nH]c4ccccc24)NC(=O)[C@H](CC(C)C)NC(=O)[C@H](CCCCN)NC3=O)NC1=O` [compound 438], under “Table 12”, the Nav1.4/Nav1.7 turned out to be 7.
With `C#CC[C@H](N)C(=O)NCCCC[C@@H]1NC(=O)[C@H](CCCNC(=N)N)NC(=O)[C@H](CCCCN)NC(=O)[C@H](CO)NC(=O)[C@H](CC(=O)O)NC(=O)[C@@H]2CSSC[C@@H]3NC(=O)[C@H](CCCNC(=N)N)NC(=O)[C@H](CC(C)C)NC(=O)CNC(=O)[C@H](CCC(=O)O)NC(=O)[C@H](CSSC[C@H](NC(=O)[C@H](Cc4ccc(O)cc4)NC(=O)[C@@H](N)CCC)C(=O)N[C@@H](CCC(N)=O)C(=O)N[C@@H](CCCCN)C(=O)N[C@@H](Cc4c[nH]c5ccccc45)C(=O)N[C@@H](CCCC)C(=O)N[C@@H](Cc4c[nH]c5ccccc45)C(=O)N[C@@H]([C@@H](C)O)C(=O)N2)NC(=O)[C@H](CSSC[C@@H](C(=O)N[C@@H](CCCNC(=N)N)C(=O)N[C@@H](CCCCN)C(=O)N[C@@H](CCC(=O)O)C(=O)N[C@H](C(N)=O)[C@@H](C)CC)NC(=O)[C@H](Cc2c[nH]c4ccccc24)NC(=O)[C@H](CC(C)C)NC(=O)[C@H](CCCCN)NC3=O)NC1=O` [compound 435], for the setting “Table 12”, the Nav1.4/Nav1.7 was determined as 99.
For the compound `C#CC[C@H](N)C(=O)NCCCC[C@@H]1NC(=O)[C@H](CCCNC(=N)N)NC(=O)[C@H](CCCCN)NC(=O)[C@H](CO)NC(=O)[C@H](CC(=O)O)NC(=O)[C@@H]2CSSC[C@@H]3NC(=O)[C@H](CCC(=O)O)NC(=O)[C@H](CC(C)C)NC(=O)CNC(=O)[C@H](CCC(=O)O)NC(=O)[C@H](CSSC[C@H](NC(=O)[C@H](Cc4ccc(O)cc4)NC(=O)[C@@H](N)CC#N)C(=O)N[C@@H](CCC(N)=O)C(=O)N[C@@H](CCCCN)C(=O)N[C@@H](Cc4c[nH]c5ccccc45)C(=O)N[C@@H](CCCC)C(=O)N[C@@H](Cc4c[nH]c5ccccc45)C(=O)N[C@@H]([C@@H](C)O)C(=O)N2)NC(=O)[C@H](CSSC[C@@H](C(=O)N[C@@H](CCCNC(=N)N)C(=O)N[C@@H](CCCCN)C(=O)N[C@@H](Cc2ccc(O)cc2)C(=O)N[C@H](C(N)=O)[C@@H](C)CC)NC(=O)[C@H](Cc2c[nH]c4ccccc24)NC(=O)[C@H](CC(C)C)NC(=O)[C@H](CCCCN)NC3=O)NC1=O` [compound 394], for the setting “Table 12”, the Nav1.4/Nav1.7 was found to be 19130.
